From patent publication US5455274A, “Hydroxyamidine derivatives” (Ciba-Geigy Corporation, priority 1992, dated 1995)

How the values were obtained:
[1] = tested on: Human PMNs; assay: LTB4-induced PMN aggregation; format: cell-based; details: in vitro, 20 nM LTB4, read-out: inhibits LTB4 -induced PMN aggregation, IC50
Description: Neutrophils (PMN's) are prepared from uncoagulated human venous blood. Blood is dispersed into 50 ml polypropylene tubes containing 15 ml of HESPAN (Dupont, Wilmington, Del.), and mixed. Tubes are allowed to stand at room temperature for 40 minutes until most of the red blood cells sediment. The supernatants are removed and centrifuged for 5-10 min at 400×g. The remaining pellets are diluted in 70 ml of Phosphate Buffered Saline without calcium and magnesium (PBS without metals; GIBCO, Grand Island, N.Y.) and 35 ml of this suspension are placed in each of two polypropylene tubes containing 15 ml of Ficoll-Paque (Sigma, St. Louis, Mo.). Gradients are then centrifuged for 15 minutes at 420×g. […]
Human PMNs are prepared as previously described. Neutrophil aggregation is assessed by monitoring the intensity of light passing through a suspension of cells (Craddock et al., J. Clin. Invest. 60: 260-264, 1977) using a Payton dual channel aggregometer (model 300BD). […] 5 μl of 2 μM LTB4 in PBS (20 nM final concentration) are added and the aggregation response monitored for 3-5 min, the time required for optimal response, Compounds are solubilized in 0.01M DMSO and then diluted in PBS to 0.001 M. 5 μl of compound solution is added along with cytochalasin B and cells as described above. Following the preincubation period 5 μl of 2 μM LTB4 are added and aggregation is measured. […]

[2] = tested on: LTB4 -induced neutropenia; assay: LTB4-induced neutropenia in the rat; format: in vivo; details: dose of about 0.5 mg./Kg p.o., determined at four hours after administration
Description: LTB4 -Induced Neutropenia in the Rat
Male Sprague Dawley rats (crl: CDBR; Charles River, Wilmington, Mass.) (250-300 grams) are fasted overnight prior to the experiment. At least six animals are used per treatment group. Rats are given vehicle or compound either intravenously or orally and at intervals after dosing, neutrophil counts are determined from blood samples obtained just prior to and 20 seconds after intravenous infusion of 200 ng LTB4. In studies where compound is administered orally, drug is given by gavage. When drug is administered intravenously, rats are first anesthetized with 50 mg/kg i.p. of Sodium Pentabarbital. The jugular vein is exposed and cleaned of the surrounding tissue. At 3, 4 or 18 hours following administration of compound or vehicle by either route, blood samples are taken (0.3 ml of blood in 1.5 ml polypropylene microcentrifuge tube containing 0.01 mi 7.5% EDTA). Blood neutrophil counts are determined using a Technicon H-1 hematology instrument. Antagonism of the LTB4 -induced neutropenia response for the compounds tested is calculated.

IC50 [1]: ~10 nM
Structure (SMILES): CC(C)N(C(=O)c1ccc(OCCCCCOc2ccc(C(N)=NO)cc2)cc1O)C(C)C [Example 1, 4-[5-[4-[amino(hydroxyimino)methyl]phenoxy]pentyloxy]-2-hydroxy-N,N-bis(1-methylethyl)benzamide]
inhibition of LTB4 -induced neutropenia in the rat [2]: causes inhibition
